Laboratory results reported in patent publication US20230114674A1, “ISOINDOLINE DERIVATIVE, AND PHARMACEUTICAL COMPOSITION AND USE THEREOF” (KANGPU BIOPHARMACEUTICALS, LTD., priority 2020, published 2023).
pIC50: −log10 of the molar value.

test system: MM.1S myeloma cells; experiment: Cell proliferation inhibition test by MTS assay; assay type: cell-based; conditions: Homo sapiens, MM1.S, 72 hours drug treatment, 15,000 cells/well, 96-well plate
Description: Experimental Method for Cell Proliferation Inhibition Test by MTS Assay:
Proliferating MM.1S myeloma cells (ATCC, Cat #CRL-2974) were resuspended in RPMI-640 medium (Gibco, Cat #A10491-01) and counted using an automated cell counter. The cell suspension was diluted to the needed density and 100 μl (15,000 cells) of the cell suspension was plated per well in a 96-well plate. The plate was cultured in a 37° C., 5% CO2 incubator for 24 hours. On the day of administration, each compound was formulated into 20 mM stock solution with DMSO (Sigma, Cat #D2650), diluted with a medium to the needed concentration, and then added to the corresponding wells for the cell proliferation inhibition test with a drug of 4-fold serial dilution with 10 points. The final concentration of DMSO was 0.5%. After drug addition, the 96-well plate was cultured in a 37° C., 5% CO2 incubator for 72 hours. Then, 20 μl of MTS (Promega, Cat #G3581) was added to each well and the plate was cultured for 2 hours in a 37° C., 5% CO2 incubator, and then the absorbance at 490 nm of each well was recorded using an Ensight instrument. The reading of the cells at Day 0 was used as a negative control and the reading of cells with 0.5% DMSO at Day-3 was used as a positive control. Cell proliferation inhibition curve was plotted using GraphPad Prism 5 software and the IC50 value was calculated. Experiment results can be seen in Table 1.

SMILES | pIC50
N#Cc1ccc(N2CCN(Cc3ccc(COc4cccc5c4CN([C@H]4CCC(=O)NC4=O)C5=O)c(Cl)c3)CC2)c(F)c1 [CM-1] | 9.99
CCOc1nc(N2CCN(Cc3ccc(COc4cccc5c4CN([C@H]4CCC(=O)NC4=O)C5=O)cc3F)CC2)ccc1OC [CM-26] | 9.33
CCc1cc(N2CCN(Cc3ccc(COc4cccc5c4CN([C@H]4CCC(=O)NC4=O)C5=O)c(F)c3)CC2)ccc1C#N [CM-41] | 9.94
N#Cc1ccc(N2CCN(Cc3ccc(COc4cccc5c4CN([C@H]4CCC(=O)NC4=O)C5=O)c(F)c3)CC2)cc1OCC1CC1 [CM-13] | 10.57
O=C1CC[C@H](N2Cc3c(OCc4ccc(CN5CCN(c6ccc(C(F)(F)F)c(F)c6)CC5)cc4F)cccc3C2=O)C(=O)N1 [CM-16] | 9.72
N#Cc1ccc(N2CCN(Cc3ccc(COc4cccc5c4CN([C@H]4CCC(=O)NC4=O)C5=O)c(F)c3)CC2)c(Cl)c1 [CM-9] | 10.87
N#Cc1ccc(N2CCN(Cc3ccc(COc4cccc5c4CN([C@H]4CCC(=O)NC4=O)C5=O)c(F)c3)CC2)cc1Cl [CM-39] | 10.20
CNC(=O)c1cc(C#N)ccc1N1CCN(Cc2ccc(COc3cccc4c3CN([C@H]3CCC(=O)NC3=O)C4=O)c(F)c2)CC1 [CM-34] | 10.12
[2H]C([2H])([2H])Oc1cc(N2CCN(Cc3ccc(COc4cccc5c4CN([C@H]4CCC(=O)NC4=O)C5=O)c(F)c3)CC2)ccc1C#N [CM-15] | 11.21
C=Cc1ccc(N2CCN(Cc3ccc(COc4cccc5c4CN([C@H]4CCC(=O)NC4=O)C5=O)c(F)c3)CC2)c(F)c1 [CM-38] | 8.92
N#Cc1ccc(N2CCN(Cc3ccc(COc4cccc5c4CN([C@H]4CCC(=O)NC4=O)C5=O)c(F)c3)CC2)c(C(F)(F)F)c1 [CM-8] | 10.68
N#Cc1ccc(N2CCN(Cc3ccc(COc4cccc5c4CN([C@H]4CCC(=O)NC4=O)C5=O)cc3F)CC2)c(F)c1 [CM-4, (S)-4-(4-(4-(((2-(2,6-dioxopiperidin-3-yl)-1-oxoisoindolin-4-yl)oxy)methyl)-2-fluorobenzyl)piperazin-1-yl)-3-fluorobenzonitrile] | 10.82
COc1cc(C#N)ccc1N1CCN(Cc2ccc(COc3cccc4c3CN([C@H]3CCC(=O)NC3=O)C4=O)c(F)c2)CC1 [CM-27] | 9.87
N#Cc1ccc(N2CCN(Cc3ccc(COc4cccc5c4CN([C@H]4CCC(=O)NC4=O)C5=O)c(F)c3)CC2)cc1F [CM-5, (S)-4-(4-(4-(((2-(2,6-dioxopiperidin-3-yl)-1-oxoisoindolin-4-yl)oxy)methyl)-3-fluorobenzyl)piperazin-1-yl)-2-fluorobenzonitrile] | 11.20
N#Cc1ccc(N2CCN(Cc3ccc(COc4cccc5c4CN([C@H]4CCC(=O)NC4=O)C5=O)c(F)c3)CC2)cc1C1CC1 [CM-37] | 9.92
N#Cc1ccc(N2CCN(Cc3ccc(COc4cccc5c4CN([C@H]4CCC(=O)NC4=O)C5=O)c(F)c3)CC2)cn1 [CM-28] | 9.99
N#Cc1ccc(N2CCN(Cc3ccc(COc4cccc5c4CN([C@H]4CCC(=O)NC4=O)C5=O)c(F)c3)CC2)c(F)c1 [CM-3, (S)-4-(4-(4-(((2-(2,6-dioxopiperidin-3-yl)-1-oxoisoindolin-4-yl)oxy)methyl)-3-fluorobenzyl)piperazin-1-yl)-3-fluorobenzonitrile] | 11.19
N#Cc1ccc(N2CCN(Cc3ccc(COc4cccc5c4CN([C@H]4CCC(=O)NC4=O)C5=O)c(F)c3)CC2)cc1 [CM-10] | 10.98

SMILES | pIC50
CCOc1cc(C#N)ccc1N1CCN(Cc2ccc(COc3cccc4c3CN([C@H]3CCC(=O)NC3=O)C4=O)c(F)c2)CC1 [CM-36] | 9.83
N#Cc1ccc(N2CCN(Cc3ccc(COc4cccc5c4CN([C@H]4CCC(=O)NC4=O)C5=O)c(F)c3)CC2)cc1C(F)(F)F [CM-6, (S)-4-(4-(4-(((2-(2,6-dioxopiperidin-3-yl)-1-oxoisoindolin-4-yl)oxy)methyl)-3-fluorobenzyl)piperazin-1-yl)-2-(trifluoromethyl)benzonitrile] | 10.39
N#Cc1ncc(N2CCN(Cc3ccc(COc4cccc5c4CN([C@H]4CCC(=O)NC4=O)C5=O)cc3F)CC2)cc1C(F)(F)F [CM-25] | 10.54
N#Cc1ccc(N2CCN(Cc3ccc(COc4cccc5c4CN([C@H]4CCC(=O)NC4=O)C5=O)c(F)c3)CC2)c(C#N)c1 [CM-30] | 9.96
O=C1CC[C@H](N2Cc3c(OCc4ccc(CN5CCN(c6ccc([N+](=O)[O-])cc6F)CC5)cc4F)cccc3C2=O)C(=O)N1 [CM-2, (S)-3-(4-((2-fluoro-4-((4-(2-fluoro-4-nitrophenyl)piperazin-1-yl)methyl)benzyl)oxy)-1-oxoisoindolin-2-yl)piperidine-2,6-dione] | 10.86
NC(=O)c1ccc(N2CCN(Cc3ccc(COc4cccc5c4CN([C@H]4CCC(=O)NC4=O)C5=O)cc3F)CC2)c(F)c1 [CM-23] | 10.24
Cc1cc(N2CCN(Cc3ccc(COc4cccc5c4CN([C@H]4CCC(=O)NC4=O)C5=O)c(F)c3)CC2)ccc1C#N [CM-11] | 11.04
N#Cc1ccc(N2CCN(Cc3ccc(COc4cccc5c4CN(C4CCC(=O)NC4=O)C5=O)c(F)c3)CC2)nc1 (stereo not drawn) [CM-29] | 9.70
NC(=O)c1ccc(N2CCN(Cc3ccc(COc4cccc5c4CN([C@H]4CCC(=O)NC4=O)C5=O)c(F)c3)CC2)c(F)c1 [CM-24] | 10.41
COc1cc(N2CCN(Cc3ccc(COc4cccc5c4CN([C@H]4CCC(=O)NC4=O)C5=O)cc3F)CC2)ccc1C#N [CM-21] | 10.95
N#Cc1ccc(N2CCN(Cc3ccc(COc4cccc5c4CN([C@H]4CCC(=O)NC4=O)C5=O)c(F)c3)CC2)c(O)c1 [CM-40] | 9.42
CCOc1cc(N2CCN(Cc3ccc(COc4cccc5c4CN([C@H]4CCC(=O)NC4=O)C5=O)c(F)c3)CC2)ccc1C#N [CM-12] | 11.17
COc1cc(N2CCN(Cc3ccc(COc4cccc5c4CN([C@H]4CCC(=O)NC4=O)C5=O)c(F)c3)CC2)ccc1C#N [CM-7, (S)-4-(4-(4-(((2-(2,6-dioxopiperidin-3-yl)-1-oxoisoindolin-4-yl)oxy)methyl)-3-fluorobenzyl)piperazin-1-yl)-2-methoxybenzonitrile] | 11.27
CCc1cc(C#N)ccc1N1CCN(Cc2ccc(COc3cccc4c3CN([C@H]3CCC(=O)NC3=O)C4=O)c(F)c2)CC1 [CM-35] | 10.02
N#Cc1ccc(N2CCN(Cc3ccc(COc4cccc5c4CN([C@H]4CCC(=O)NC4=O)C5=O)c(F)c3)CC2)c(C(N)=O)c1 [CM-33] | 10.11
C#Cc1ccc(N2CCN(Cc3ccc(COc4cccc5c4CN([C@H]4CCC(=O)NC4=O)C5=O)c(F)c3)CC2)c(F)c1 [CM-43] | 9.24
N#Cc1ccc(N2CCN(Cc3ccc(COc4cccc5c4CN([C@H]4CCC(=O)NC4=O)C5=O)cc3F)CC2)cc1F [CM-20] | 10.88
NC(=O)c1ccc(N2CCN(Cc3ccc(COc4cccc5c4CN([C@H]4CCC(=O)NC4=O)C5=O)c(F)c3)CC2)cc1F [CM-18, (S)-4-(4-(4-(((2-(2,6-dioxopiperidin-3-yl)-1-oxoisoindolin-4-yl)oxy)methyl)-3-fluorobenzyl)piperazin-1-yl)-2-fluorobenzamide] | 10.73
